The values that follow come from paper PMC6147075, “Discovery of novel fragments inhibiting O-acetylserine sulphhydrylase by combining scaffold hopping and ligand–based drug design” (Journal of Enzyme Inhibition and Medicinal Chemistry, 2018).

Molecules are shown by their SMILES.

The target of the first data set is T1, OASS-A (Salmonella typhimurium, UniProt P0A1E3).
T1 construct: His6 (N, cleaved yes); made in house; host or cells: E. coli Rosetta (DE3)
T1 sequence (P0A1E3 whole entry): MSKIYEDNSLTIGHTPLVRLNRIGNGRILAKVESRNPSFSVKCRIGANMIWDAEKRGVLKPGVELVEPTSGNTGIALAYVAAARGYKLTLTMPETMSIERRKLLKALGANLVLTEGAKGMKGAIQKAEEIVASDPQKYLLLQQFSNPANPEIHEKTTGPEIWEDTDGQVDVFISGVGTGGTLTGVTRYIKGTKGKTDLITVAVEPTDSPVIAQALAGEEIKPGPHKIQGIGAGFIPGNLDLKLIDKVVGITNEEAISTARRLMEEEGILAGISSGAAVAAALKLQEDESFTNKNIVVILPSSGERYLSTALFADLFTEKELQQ
Briefly: 96-well activity assay (cysteine-ninhydrin), OASS-A. Type of data set: biochemical, Salmonella enterica serovar Typhimurium. The settings on record: compound 1 µM; bisulfide 600 µM, OAS at Km; two replicates; ns = Not Significant. On the procedure: (§1) The genes cysK and cysM encoding STOASS-A and STOASS-B, respectively, were subcloned from pET16b[34] to pET19m in order to replace the restriction site for Factor Xa with the one for TEV protease. pET19m-STcysK and pET19m-STcysM were transformed in E. coli Rosetta^TM (DE3) competent cells for protein expression. Protein expression and purification was performed following published protocols[34] with some modifications. Briefly, protein expression was induced on bacterial growth in exponential phase by IPTG for 4 and 5 h for OASS-B and OASS-A, respectively. Cells were lysed by pulsed sonication in 50 mM NaP, 300 mM NaCl, pH 7, with the addition of 1 mg/mL lysozyme. Purification was performed by immobilized metal affinity column (IMAC) on Co^2+ ions (Talon™, Clontech Laboratories, Inc., Mountain View, CA). Proteins were eluted with 250 mM (His6-OASS-A) or 600 mM (His6-OASS-B) imidazol. His-tag was removed from His6-OASS-A by treatment with TEV protease during O/N dialysis in 10 mM HEPES pH 8. His-tag was removed from His6-OASS-B by treatment with TEV protease in 20 mM HEPES, 100 mM NaCl, 1 mM TCEP pH 8 for 24 h at 5 °C. […] OASS-A was stored in 10 mM HEPES pH 8 and OASS-B in 20 mM HEPES, 100 mM NaCl, 1 mM TCEP pH 8.
(§2) The concentration of bisulfide was saturating (600 μM), whereas the concentration of OAS was set at Km to increase the sensitivity. The dissociation constant of selected compounds for StOASS-A and OASS-B was measured by a fluorimetric method published elsewhere[23]^,[24]. Briefly, a solution containing 1 µM StOASS-A in 100 mM Hepes pH 7 was titrated with increasing concentrations of compound at 20 °C. The fluorescence emission intensity of the PLP cofactor at 505 nm upon excitation at 412 nm was collected after each addition, subtracted by the blank and normalized by the protein dilution. The dependence of the emission intensity at 505 nm on the concentration of the compound was fitted to a binding isotherm[23] to calculate the dissociation constant of the protein-ligand complex.
On to `O=C(O)c1ccn(-c2ccc(Cl)cc2)n1` [Compound 5d, 1–(4-chlorophenyl)-1H-pyrazole-3-carboxylic acid], for which the “% inhibition OASS-A” value is reported as “ns”.

With `O=C(O)c1ccn(-c2ccc(Br)cc2)n1` [Compound 5e, 1–(4-bromophenyl)-1H-pyrazole-3-carboxylic acid], the “% inhibition OASS-A” value is “ns”.

As for `CC(C)(C)c1ccc(-n2ccc(C(=O)O)n2)cc1` [Compound 5f, 1–(4-(tert-butyl)phenyl)-1H-pyrazole-3-carboxylic acid], the “% inhibition OASS-A” value was “ns”.

`O=C(O)c1ccn(-c2ccc(F)cc2)n1` [Compound 5g, 1–(4-fluorophenyl)-1H-pyrazole-3-carboxylic acid]: the “% inhibition OASS-A” value is given as “ns”.

As for `O=C(O)c1ccn(C2CCCCC2)n1` [Compound 5h, 1-cyclohexyl-1H-pyrazole-3-carboxylic acid], the “% inhibition OASS-A” value is listed as “ns”.

The data set is the same for the next values; noted with them: compound 1 mM; bisulfide 600 µM, OAS at Km; two replicates; read-out: % inhibition OASS-A.
`O=C(O)c1ccn(-c2ccc(Cl)cc2)n1` [Compound 5d, 1–(4-chlorophenyl)-1H-pyrazole-3-carboxylic acid]: the inhibition at 1000 µM was 63 ± 1%.

For the compound `O=C(O)c1ccn(-c2ccc(Br)cc2)n1` [Compound 5e, 1–(4-bromophenyl)-1H-pyrazole-3-carboxylic acid], the inhibition at 1000 µM is 62 ± 1%.

Take `CC(C)(C)c1ccc(-n2ccc(C(=O)O)n2)cc1` [Compound 5f, 1–(4-(tert-butyl)phenyl)-1H-pyrazole-3-carboxylic acid]: the inhibition at 1000 µM is 81 ± 1%.

With `O=C(O)c1ccn(-c2ccc(F)cc2)n1` [Compound 5g, 1–(4-fluorophenyl)-1H-pyrazole-3-carboxylic acid], the inhibition at 1000 µM amounted to 73 ± 1%.

As to `O=C(O)c1ccn(C2CCCCC2)n1` [Compound 5h, 1-cyclohexyl-1H-pyrazole-3-carboxylic acid], the inhibition at 1000 µM stood at 79 ± 1%.

Another data set deals with T2, OASS-B (Salmonella typhimurium, UniProt P29848).
T2 construct: His6 (N, cleaved yes); made in house; host or cells: E. coli Rosetta (DE3)
T2 sequence (P29848 1-303): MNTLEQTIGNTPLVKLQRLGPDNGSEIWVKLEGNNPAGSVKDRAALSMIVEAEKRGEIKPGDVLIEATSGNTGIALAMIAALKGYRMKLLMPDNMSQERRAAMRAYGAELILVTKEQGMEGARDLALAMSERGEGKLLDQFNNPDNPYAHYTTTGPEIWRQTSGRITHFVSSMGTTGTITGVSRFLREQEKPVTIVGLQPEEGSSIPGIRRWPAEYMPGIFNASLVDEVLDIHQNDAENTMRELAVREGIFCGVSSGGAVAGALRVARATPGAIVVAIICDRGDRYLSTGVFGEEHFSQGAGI
Briefly: biochemical.
Details: not given
The class given is binding. On the procedure: as §1, §2
For `O=C(O)c1ccc[nH]1` [Compound 14, 1H-pyrrole-2-carboxylic acid], the dissociation constant (Kd) is 465 ± 50 µM.

Compound `O=C(O)c1nccs1` [Compound 16, thiazole-2-carboxylic acid] registered a Kd of 338 ± 14 µM.

Staying with this data set, now noted: LE = (1.37/HA). pIC50, HA = heavy atoms.
Consider `Cc1ccc(C[C@@]2(C(=O)O)C[C@H]2c2ccccc2)cc1` [Compound 2, (1S,2S)-1–(4-methylbenzyl)-2-phenylcyclopropanecarboxylic acid], for which the “LE (OASS-B)” value is listed as 0.50 kcal/mol/HA.

In the case of `O=C(O)c1ccc[nH]1` [Compound 14, 1H-pyrrole-2-carboxylic acid], the “LE (OASS-B)” value is 0.60 kcal/mol/HA.

For the compound `O=C(O)c1nccs1` [Compound 16, thiazole-2-carboxylic acid], the “LE (OASS-B)” value is reported as 0.60 kcal/mol/HA.

For the next data set, the target named is T2, OASS-B.
Assay: not given
Further details: method as in PMID 26894308. The settings on record: previously reported reference compound 2; cited from earlier work.
Take `Cc1ccc(C[C@@]2(C(=O)O)C[C@H]2c2ccccc2)cc1` [Compound 2, (1S,2S)-1–(4-methylbenzyl)-2-phenylcyclopropanecarboxylic acid]: the Kd was 0.049 µM.

The target of the next data set is T2, OASS-B. As to the kind of experiment: 96-well activity assay (cysteine-ninhydrin), OASS-B. Type of data set: biochemical.
Details: not given
On the procedure:
as §1, §2
Consider `O=C(O)c1ccn(-c2ccc(Cl)cc2)n1` [Compound 5d, 1–(4-chlorophenyl)-1H-pyrazole-3-carboxylic acid], for which the inhibition at 1 µM was 15 ± 2%.

For `CC(C)(C)c1ccc(-n2ccc(C(=O)O)n2)cc1` [Compound 5f, 1–(4-(tert-butyl)phenyl)-1H-pyrazole-3-carboxylic acid], testing at 1 µM gave an inhibition of 11 ± 6%.

The data set is the same for the next values; noted with them: compound 1 µM; bisulfide 600 µM, OAS at Km; two replicates; ns = Not Significant.
Regarding `O=C(O)c1ccn(-c2ccc(Br)cc2)n1` [Compound 5e, 1–(4-bromophenyl)-1H-pyrazole-3-carboxylic acid], the “% inhibition OASS-B” value is listed as “ns”.

As to `O=C(O)c1ccn(-c2ccc(F)cc2)n1` [Compound 5g, 1–(4-fluorophenyl)-1H-pyrazole-3-carboxylic acid], the “% inhibition OASS-B” value is on record as “ns”.

As to `O=C(O)c1ccn(C2CCCCC2)n1` [Compound 5h, 1-cyclohexyl-1H-pyrazole-3-carboxylic acid], the “% inhibition OASS-B” value is given as “ns”.

Still in this data set, the particulars now being: read-out: % inhibition OASS-B.
As for `O=C(O)c1ccn(-c2ccc(Cl)cc2)n1` [Compound 5d, 1–(4-chlorophenyl)-1H-pyrazole-3-carboxylic acid], the inhibition at 1000 µM stood at 63 ± 1%.

Turning to `O=C(O)c1ccn(-c2ccc(Br)cc2)n1` [Compound 5e, 1–(4-bromophenyl)-1H-pyrazole-3-carboxylic acid], the inhibition at 1000 µM came out at 35 ± 2%.

Take `CC(C)(C)c1ccc(-n2ccc(C(=O)O)n2)cc1` [Compound 5f, 1–(4-(tert-butyl)phenyl)-1H-pyrazole-3-carboxylic acid]: the inhibition at 1000 µM is 82 ± 1%.

For the compound `O=C(O)c1ccn(-c2ccc(F)cc2)n1` [Compound 5g, 1–(4-fluorophenyl)-1H-pyrazole-3-carboxylic acid], the inhibition at 1000 µM amounted to 36 ± 3%.

Turning to `O=C(O)c1ccn(C2CCCCC2)n1` [Compound 5h, 1-cyclohexyl-1H-pyrazole-3-carboxylic acid], the inhibition at 1000 µM is 43 ± 3%.

The target of a further data set is T3, StOASS-A (Salmonella typhimurium, UniProt P0A1E3).
T3 construct: His6 (N, cleaved yes); made in house; host or cells: E. coli Rosetta (DE3)
T3 sequence (P0A1E3 whole entry): as the sequence (P0A1E3 whole entry) above
As to the kind of experiment: Fluorimetric binding titration (PLP emission), StOASS-A. Further details: species or system Salmonella enterica serovar Typhimurium. The settings on record: 1 µM StOASS-A, 100 mM Hepes pH 7, 20 °C; read-out: Kd OASS-A. On the procedure:
as §1, §2
As for `O=C(O)c1ccc[nH]1` [Compound 14, 1H-pyrrole-2-carboxylic acid], the Kd turned out to be 59 ± 11 µM.

As for `O=C(O)c1nccs1` [Compound 16, thiazole-2-carboxylic acid], the Kd is 52 ± 6 µM.

Staying with this data set, now noted: LE = (1.37/HA). pIC50, HA = heavy atoms.
For the compound `Cc1ccc(C[C@@]2(C(=O)O)C[C@H]2c2ccccc2)cc1` [Compound 2, (1S,2S)-1–(4-methylbenzyl)-2-phenylcyclopropanecarboxylic acid], the “LE (OASS-A)” value is listed as 0.52 kcal/mol/HA.

Regarding `O=C(O)c1ccc[nH]1` [Compound 14, 1H-pyrrole-2-carboxylic acid], the “LE (OASS-A)” value was 0.72 kcal/mol/HA.

For the compound `O=C(O)c1nccs1` [Compound 16, thiazole-2-carboxylic acid], the “LE (OASS-A)” value came to 0.74 kcal/mol/HA.

In a further data set the test system is Salmonella. Briefly: Activity against Salmonella in vitro. Type of data set: cell-based.
Details: not given
Turning to `Cc1ccc(C[C@@]2(C(=O)O)C[C@H]2c2ccccc2)cc1` [Compound 2, (1S,2S)-1–(4-methylbenzyl)-2-phenylcyclopropanecarboxylic acid], the “activity when tested against Salmonella in vitro” value was “did not show any activity”.

The subject of another data set is cell envelope of Gram-negative bacteria.
Assay: not given
The settings on record: not told.
As to `Cc1ccc(C[C@@]2(C(=O)O)C[C@H]2c2ccccc2)cc1` [Compound 2, (1S,2S)-1–(4-methylbenzyl)-2-phenylcyclopropanecarboxylic acid], the “permeability through the cell envelope” value is “poor permeability”.

Another data set has as its target OASS.
Assay: not given
The settings on record: read-out: Kd-OASS; cited from earlier work.
For the compound `Cc1ccc(C[C@@]2(C(=O)O)C[C@H]2c2ccccc2)cc1` [Compound 2, (1S,2S)-1–(4-methylbenzyl)-2-phenylcyclopropanecarboxylic acid], the Kd is 0.028 µM.

The same data set, now with this note: read-out: Kd; cited from earlier work.
Regarding `C/C=C/[C@@H]1C[C@H]1C(=O)O` (racemic) [Compound 1, (±)-trans-2-[(1E)-prop-1-en-1-yl]cyclopropanecarboxylic acid], the Kd is 1.46 µM.
